In paper PMC7144530 (The Journal of Experimental Medicine, 2020):

Test system: CD8 T cells (CD4-depleted splenocytes)
Experiment: IFN-gamma ELISpot of CD8 T cells from mice immunized with mutant SLP + adjuvant
Assay type: in vivo, mouse
Conditions: long peptide ELISpot, immunized vs control; positivity needs effect size ≥2

## IYEFDYHLYGQNITMIMTSVSGHL [Mutation C-117]
  fold-change of IFN-gamma spot counts after vaccination: 1.94
